Reference: patent publication US9023393B2, “Pharmaceutical compositions of adsorbates of amorphous drugs and lipophilic microphase-forming materials” (Bend Research, Inc., priority 2003, dated 2015)

Key:
Type in all cases: physicochemical
[1] = In vitro dissolution test of Drug 3 compositions (Example 4 in MOPS buffer pH 7.4, controls given as PBS), room temperature, 0.45 μm syringe filter, UV; 50 μg/mL if all drug dissolved
Protocol: Example 4 consisted of Adsorbate 3 administered into solution with a lipophilic microphase-forming material. At time 0, an 8.02 mg sample of Adsorbate 3 was added to 40 ml of 50 mM 3-(4-morpholino propane sulfonic acid) sodium salt (MOPS) buffer at pH 7.4, containing 5 mg/mL of Tween 80 (available from ICI Americas Inc); the concentration of drug would have been 50 μg/mL, if all of the drug had dissolved. The test solution was stirred at room temperature in a syringe equipped with a Gelman Acrodisc 13 CR 0.45 μm PTFE filter, as described for Example 1. Samples were collected and analyzed using UV to determine the concentration of Drug 3 in solution.
Control 8 consisted of Adsorbate 3 administered into PBS without the lipophilic microphase-forming material, and a sufficient amount of sample was added so that the concentration of drug would have been 50 μg/mL, if all of the drug had dissolved.
Control 9 consisted of crystalline Drug 3 administered into PBS containing Tween 80, and a sufficient amount of Drug 3 was added so that the concentration would have been 50 μg/mL, if all of the drug had dissolved.
Control 10 consisted of crystalline Drug 3 administered into PBS without the lipophilic microphase-forming material, and a sufficient amount of sample was added so that the concentration of drug would have been 50 μg/mL, if all of the drug had dissolved.

[2] = In vitro dissolution test of Drug 2 compositions in PBS pH 6.5, room temperature, 0.45 μm syringe filter, UV; 50 μg/mL if all drug dissolved
Protocol: Example 3 consisted of Adsorbate 2 administered into solution with a lipophilic microphase-forming material. At time 0, a 6.656 mg sample of Adsorbate 2 was added to 40 mL of phosphate buffered saline (PBS) at pH 6.5 and 290 mOsm/kg, containing 1 mg/mL of PEG 6000 distearate (the concentration of drug would have been 50 μg/mL, if all of the drug had dissolved). The test solution was stirred at room temperature in a syringe equipped with a Gelman Acrodisc 13 CR 0.45 μm PTFE filter, as described for Example 1. Samples were collected and analyzed using UV to determine the concentration of Drug 2 in solution.
Control 5 consisted of Adsorbate 2 administered into PBS without the lipophilic microphase-forming material, and a sufficient amount of sample was added so that the concentration of drug would have been 50 μg/mL, if all of the drug had dissolved.
Control 6 consisted of crystalline Drug 2 administered into PBS containing PEG 6000 Distearate, and a sufficient amount of Drug 2 was added so that the concentration would have been 50 μg/mL, if all of the drug had dissolved.
Control 7 consisted of crystalline Drug 2 administered into PBS without the lipophilic microphase-forming material, and a sufficient amount of sample was added so that the concentration of drug would have been 50 μg/mL, if all of the drug had dissolved.

[3] = In vitro dissolution test of Drug 1 compositions in PBS pH 6.5, room temperature, 0.45 μm syringe filter, UV; 50 μg/mL if all drug dissolved
Protocol: Example 1 consisted of Adsorbate 1 administered in solution with a lipophilic microphase-forming material. At time 0, a 4 mg sample of Adsorbate 1 was added to 40 mL phosphate buffered saline (PBS) at pH 6.5 and 290 mOsm/kg, containing 1 mg/mL of the lipophilic microphase-forming material Cremaphor RH40 (available from BASF of Mount Olive, N.J.). The concentration of drug would have been 50 μg/mL, if all of the drug had dissolved. The test solution was stirred at room temperature in a syringe equipped with a Gelman Acrodisc 13 CR 0.45 μm PTFE filter. At each sample time, 1 to 2 mL test solution was pushed through the filter and analyzed using UV to determine the concentration of Drug 1 in solution. Samples were collected at 0.5, 1, 2, 3, 5, 10, 15, 20, 30, 45, 60, 90, 120, 150, 250 and 1200 minutes.
(§1) Control 1 consisted of Adsorbate 1 administered into PBS without the lipophilic microphase-forming material, and a sufficient amount of adsorbate was added so that the concentration of drug would have been 50 μg/mL, if all of the drug had dissolved. An in vitro dissolution test was performed with Control 1 using the procedures outlined for Example 1 and the results are shown in Table 1.
Control 2 consisted of crystalline Drug 1 administered into PBS containing 1 mg/mL of the lipophilic microphase-forming material Cremophor RH40, and a sufficient amount of Drug 1 was added so that the concentration would have been 50 μg/mL, if all of the drug had dissolved. An in vitro dissolution test was performed with Control 2 using the procedures outlined for Example 1 and the results are shown in Table 1.
as §1, with “Control 3” for “Control 1”, “of crystalline Drug” for “of Adsorbate”, “of crystalline Drug 1” for “of adsorbate”
Example 2 consisted of Adsorbate 1 administered in solution with a different lipophilic microphase-forming material. At time 0, a 4 mg sample of Adsorbate 1 was added to 40 mL phosphate buffered saline (PBS) at pH 6.5 and 290 mOsm/kg, containing 1 mg/mL of 5/2 (wt/wt) Cremaphor RH40/Capmul MCM (available from Abitec of Janesville, Wis.); the concentration of drug would have been 50 μg/mL, if all of the drug had dissolved. The test solution was stirred at room temperature in a syringe equipped with a Gelman Acrodisc 13 CR 0.45 μm PTFE filter, as described for Example 1. Samples were collected and analyzed using UV to determine the concentration of Drug 1 in solution.
Control 4 consisted of crystalline Drug 1 administered into PBS containing 5/2 (wt/wt) Cremophor RH40/Capmul MCM, and a sufficient amount of Drug 1 was added so that the concentration would have been 50 μg/mL, if all of the drug had dissolved.

Work on `O=C1Cc2cc(CCN3CCN(c4nsc5ccccc45)CC3)c(Cl)cc2N1` [Control 10] yielded an AUC90 ([1]; Drug 3, area under the aqueous concentration versus time curve after 90 minutes) of less than 90 µg·min/mL, an AUC ([1]; Drug 3, time 0 min) of less than 1 µg·min/mL and an AUC ([1]; Drug 3, time 5 min) of less than 5 µg·min/mL. For the same compound, the AUC ([1]; Drug 3, time 10 min) was less than 10 µg·min/mL, the AUC ([1]; Drug 3, time 20 min) was less than 20 µg·min/mL and the AUC ([1]; Drug 3, time 40 min) was less than 40 µg·min/mL. It also gave an AUC ([1]; Drug 3, time 90 min) of less than 90 µg·min/mL, an AUC ([1]; Drug 3, time 1260 min) of less than 1260 µg·min/mL and an MDC90 ([1]; maximum concentration of Drug 3 in solution during the first 90 minutes) of less than 1 µg/mL. The “Drug 3 Concentration” value ([1]; time 0 min) was less than 1 µg/mL, the “Drug 3 Concentration” value ([1]; time 5 min) was less than 1 µg/mL and the “Drug 3 Concentration” value ([1]; time 10 min) was less than 1 µg/mL. The “Drug 3 Concentration” value ([1]; time 20 min) was less than 1 µg/mL, the “Drug 3 Concentration” value ([1]; time 40 min) was less than 1 µg/mL and the “Drug 3 Concentration” value ([1]; time 90 min) was less than 1 µg/mL. The “Drug 3 Concentration” value ([1]; time 1260 min) was less than 1 µg/mL.

Compound `CC[C@@H]1C[C@H](N(Cc2cc(C(F)(F)F)cc(C(F)(F)F)c2)C(=O)OC)c2cc(C(F)(F)F)ccc2N1C(=O)OC(C)C` [Control 7, [2R,4S] 4-[(3,5-bis-trifluoromethyl-benzyl)-methoxycarbonyl-amino]-2-ethyl-6-trifluoromethyl-3,4-dihydro-2H-quinoline-1-carboxylic acid isopropyl ester] has an AUC90 ([2]; Drug 2, area under the aqueous concentration versus time curve after 90 minutes) of less than 45 µg·min/mL, an AUC ([2]; Drug 2, time 0 min) of 0 µg·min/mL and an AUC ([2]; Drug 2, time 1 min) of less than 1 µg·min/mL. The AUC ([2]; Drug 2, time 2 min) was less than 1 µg·min/mL, the AUC ([2]; Drug 2, time 3 min) was less than 2 µg·min/mL and the AUC ([2]; Drug 2, time 5 min) was less than 3 µg·min/mL. It also gave an AUC ([2]; Drug 2, time 10 min) of less than 5 µg·min/mL, an AUC ([2]; Drug 2, time 15 min) of less than 8 µg·min/mL and an AUC ([2]; Drug 2, time 20 min) of less than 10 µg·min/mL. For the same compound, the AUC ([2]; Drug 2, time 30 min) was less than 15 µg·min/mL, the AUC ([2]; Drug 2, time 45 min) was less than 23 µg·min/mL and the AUC ([2]; Drug 2, time 64 min) was less than 32 µg·min/mL. For the same compound, the AUC ([2]; Drug 2, time 90 min) was less than 45 µg·min/mL, the AUC ([2]; Drug 2, time 160 min) was less than 80 µg·min/mL and the AUC ([2]; Drug 2, time 1200 min) was less than 600 µg·min/mL. The MDC90 ([2]; maximum concentration of Drug 2 in solution during the first 90 minutes) was less than 0.5 µg/mL, the “Drug 2 Concentration” value ([2]; time 0 min) was less than 0.5 µg/mL and the “Drug 2 Concentration” value ([2]; time 1 min) was less than 0.5 µg/mL. For the same compound, the “Drug 2 Concentration” value ([2]; time 2 min) was less than 0.5 µg/mL, the “Drug 2 Concentration” value ([2]; time 3 min) was less than 0.5 µg/mL and the “Drug 2 Concentration” value ([2]; time 5 min) was less than 0.5 µg/mL. The “Drug 2 Concentration” value ([2]; time 10 min) was less than 0.5 µg/mL, the “Drug 2 Concentration” value ([2]; time 15 min) was less than 0.5 µg/mL and the “Drug 2 Concentration” value ([2]; time 20 min) was less than 0.5 µg/mL. For the same compound, the “Drug 2 Concentration” value ([2]; time 30 min) was less than 0.5 µg/mL, the “Drug 2 Concentration” value ([2]; time 45 min) was less than 0.5 µg/mL and the “Drug 2 Concentration” value ([2]; time 64 min) was less than 0.5 µg/mL. For the same compound, the “Drug 2 Concentration” value ([2]; time 90 min) was less than 0.5 µg/mL, the “Drug 2 Concentration” value ([2]; time 160 min) was less than 0.5 µg/mL and the “Drug 2 Concentration” value ([2]; time 1200 min) was less than 0.5 µg/mL.

`CCOC(=O)N1c2ccc(C(F)(F)F)cc2[C@@H](N(Cc2cc(C(F)(F)F)cc(C(F)(F)F)c2)C(=O)OC)C[C@H]1CC` [Control 3, [2R,4S] 4-[(3,5-bis-trifluoromethyl-benzyl)-methoxycarbonyl-amino]-2-ethyl-6-trifluoromethyl-3,4-dihydro-2H-quinoline-1-carboxylic acid ethyl ester] gave an AUC90 ([3]; Drug 1, area under the aqueous concentration versus time curve after 90 minutes) of less than 45 µg·min/mL, an AUC ([3]; Drug 1, time 0 min) of 0 µg·min/mL and an AUC ([3]; Drug 1, time 1 min) of less than 1 µg·min/mL. It also gave an AUC ([3]; Drug 1, time 3 min) of less than 2 µg·min/mL, an AUC ([3]; Drug 1, time 5 min) of less than 3 µg·min/mL and an AUC ([3]; Drug 1, time 10 min) of less than 5 µg·min/mL. It also gave an AUC ([3]; Drug 1, time 15 min) of less than 8 µg·min/mL, an AUC ([3]; Drug 1, time 20 min) of less than 10 µg·min/mL and an AUC ([3]; Drug 1, time 30 min) of less than 15 µg·min/mL. It also gave an AUC ([3]; Drug 1, time 45 min) of less than 23 µg·min/mL, an AUC ([3]; Drug 1, time 60 min) of less than 30 µg·min/mL and an AUC ([3]; Drug 1, time 90 min) of less than 45 µg·min/mL. The AUC ([3]; Drug 1, time 120 min) was less than 60 µg·min/mL, the AUC ([3]; Drug 1, time 1200 min) was less than 600 µg·min/mL and the MDC90 ([3]; maximum concentration of Drug 1 in solution during the first 90 minutes) was less than 0.5 µg/mL. The “Drug 1 Concentration” value ([3]; time 0 min) was less than 0.5 µg/mL, the “Drug 1 Concentration” value ([3]; time 1 min) was less than 0.5 µg/mL and the “Drug 1 Concentration” value ([3]; time 3 min) was less than 0.5 µg/mL. For the same compound, the “Drug 1 Concentration” value ([3]; time 5 min) was less than 0.5 µg/mL, the “Drug 1 Concentration” value ([3]; time 10 min) was less than 0.5 µg/mL and the “Drug 1 Concentration” value ([3]; time 15 min) was less than 0.5 µg/mL. The “Drug 1 Concentration” value ([3]; time 20 min) was less than 0.5 µg/mL, the “Drug 1 Concentration” value ([3]; time 30 min) was less than 0.5 µg/mL and the “Drug 1 Concentration” value ([3]; time 45 min) was less than 0.5 µg/mL. The “Drug 1 Concentration” value ([3]; time 60 min) was less than 0.5 µg/mL, the “Drug 1 Concentration” value ([3]; time 90 min) was less than 0.5 µg/mL and the “Drug 1 Concentration” value ([3]; time 120 min) was less than 0.5 µg/mL. The “Drug 1 Concentration” value ([3]; time 1200 min) was less than 0.5 µg/mL.
